In patent publication US10308643B2, “Heterocyclic compound” (Takeda Pharmaceutical Company Limited, priority 2015, dated 2019) one finds inhibition data, which are given here for 16 compounds.

Assay type in all cases: biochemical
One experiment deals with T1, HDAC9 enzyme (Homo sapiens, UniProt Q9UKV0).
T1 construct: transducing full length HDAC9 gene into Sf-9 insect cells; made in house; host or cells: Sf-9 insect cells
Nature of the experiment: HDAC9 Enzyme Inhibitory Assay (HDAC-Glo class IIa). Particulars: 1 μM test compound; wells without enzyme = 100% inhibition; read-out: HDAC9 inhibitory rate (%) (1 μM). The method, boiled down: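 Full-length human HDAC9 from Sf-9 cells, Ni-NTA purified, preincubated with compound for 60 min at room temperature in Tris-HCl pH 7.5 buffer (MgCl2, KCl, NaCl, glutathione, Tween-20). HDAC-Glo class IIa substrate-developer added; luminescence read after 20 min, with no-enzyme wells defining 100% inhibition.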

A further experiment concerns the target T2, HDAC1 enzyme (Homo sapiens, UniProt Q13547).
T2 construct: transducing full length HDAC1 and HDAC6 genes into Sf-9 insect cells; GST; purchased SignalChem; host or cells: Sf-9 insect cells
Briefly: HDAC1/6 Enzyme Inhibitory Assay (HDAC-Glo I/II Assay kit), HDAC1. Particulars: 1 μM test compound; wells without enzyme = 100% inhibition; read-out: HDAC1 inhibitory rate (%) (1 μM). The method, boiled down: (§1)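 Inhibitory activity derives from HDAC-Glo luminescence, expressed relative to wells lacking enzyme (100% inhibition). Compounds meet full-length GST-purified HDAC1 or HDAC6 for 60 min at room temperature before a 20 min substrate-developer reaction.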

A further experiment concerns the target T3, HDAC6 enzyme (Homo sapiens, UniProt Q9UBN7).
T3 construct: transducing full length HDAC1 and HDAC6 genes into Sf-9 insect cells; GST; purchased SignalChem; host or cells: Sf-9 insect cells
T3 sequence (Q9UBN7 1-1215): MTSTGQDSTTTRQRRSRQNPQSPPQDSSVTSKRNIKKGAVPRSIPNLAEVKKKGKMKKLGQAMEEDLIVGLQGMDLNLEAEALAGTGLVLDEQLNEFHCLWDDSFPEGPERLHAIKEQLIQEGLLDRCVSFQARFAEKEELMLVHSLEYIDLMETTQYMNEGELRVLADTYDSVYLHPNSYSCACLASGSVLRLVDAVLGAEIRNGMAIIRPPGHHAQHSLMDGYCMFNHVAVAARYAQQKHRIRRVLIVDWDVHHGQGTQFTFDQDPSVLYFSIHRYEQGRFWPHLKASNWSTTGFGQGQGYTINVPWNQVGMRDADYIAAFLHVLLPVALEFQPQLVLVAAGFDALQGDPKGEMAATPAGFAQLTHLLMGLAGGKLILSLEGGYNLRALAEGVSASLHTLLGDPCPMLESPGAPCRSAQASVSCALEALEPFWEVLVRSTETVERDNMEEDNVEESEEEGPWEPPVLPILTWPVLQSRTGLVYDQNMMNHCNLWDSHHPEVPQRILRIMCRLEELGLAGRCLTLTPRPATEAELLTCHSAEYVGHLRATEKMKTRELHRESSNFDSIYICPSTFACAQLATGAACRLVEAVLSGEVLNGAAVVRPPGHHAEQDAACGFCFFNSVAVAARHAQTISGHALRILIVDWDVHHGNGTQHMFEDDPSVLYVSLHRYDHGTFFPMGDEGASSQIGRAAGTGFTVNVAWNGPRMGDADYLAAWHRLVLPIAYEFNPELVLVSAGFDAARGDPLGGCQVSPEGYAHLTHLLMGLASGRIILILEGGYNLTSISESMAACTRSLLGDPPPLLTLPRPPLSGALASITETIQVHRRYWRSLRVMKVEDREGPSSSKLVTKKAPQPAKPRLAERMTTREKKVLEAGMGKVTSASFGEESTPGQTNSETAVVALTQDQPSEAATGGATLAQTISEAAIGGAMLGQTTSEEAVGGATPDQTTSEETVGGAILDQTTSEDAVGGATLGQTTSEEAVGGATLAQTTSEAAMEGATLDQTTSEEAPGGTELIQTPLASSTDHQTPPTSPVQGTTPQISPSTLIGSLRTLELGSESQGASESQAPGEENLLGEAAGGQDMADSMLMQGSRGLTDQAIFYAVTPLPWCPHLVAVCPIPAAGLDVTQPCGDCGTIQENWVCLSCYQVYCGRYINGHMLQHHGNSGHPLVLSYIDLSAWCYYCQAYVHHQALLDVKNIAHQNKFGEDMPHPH
Nature of the experiment: HDAC1/6 Enzyme Inhibitory Assay (HDAC-Glo I/II Assay kit), HDAC6. Particulars: 1 μM test compound; wells without enzyme = 100% inhibition; read-out: HDAC6 inhibitory rate (%) (1 μM). The gist of the method:
as §1

T1 sequence (Q9UKV0 whole entry, species assumed): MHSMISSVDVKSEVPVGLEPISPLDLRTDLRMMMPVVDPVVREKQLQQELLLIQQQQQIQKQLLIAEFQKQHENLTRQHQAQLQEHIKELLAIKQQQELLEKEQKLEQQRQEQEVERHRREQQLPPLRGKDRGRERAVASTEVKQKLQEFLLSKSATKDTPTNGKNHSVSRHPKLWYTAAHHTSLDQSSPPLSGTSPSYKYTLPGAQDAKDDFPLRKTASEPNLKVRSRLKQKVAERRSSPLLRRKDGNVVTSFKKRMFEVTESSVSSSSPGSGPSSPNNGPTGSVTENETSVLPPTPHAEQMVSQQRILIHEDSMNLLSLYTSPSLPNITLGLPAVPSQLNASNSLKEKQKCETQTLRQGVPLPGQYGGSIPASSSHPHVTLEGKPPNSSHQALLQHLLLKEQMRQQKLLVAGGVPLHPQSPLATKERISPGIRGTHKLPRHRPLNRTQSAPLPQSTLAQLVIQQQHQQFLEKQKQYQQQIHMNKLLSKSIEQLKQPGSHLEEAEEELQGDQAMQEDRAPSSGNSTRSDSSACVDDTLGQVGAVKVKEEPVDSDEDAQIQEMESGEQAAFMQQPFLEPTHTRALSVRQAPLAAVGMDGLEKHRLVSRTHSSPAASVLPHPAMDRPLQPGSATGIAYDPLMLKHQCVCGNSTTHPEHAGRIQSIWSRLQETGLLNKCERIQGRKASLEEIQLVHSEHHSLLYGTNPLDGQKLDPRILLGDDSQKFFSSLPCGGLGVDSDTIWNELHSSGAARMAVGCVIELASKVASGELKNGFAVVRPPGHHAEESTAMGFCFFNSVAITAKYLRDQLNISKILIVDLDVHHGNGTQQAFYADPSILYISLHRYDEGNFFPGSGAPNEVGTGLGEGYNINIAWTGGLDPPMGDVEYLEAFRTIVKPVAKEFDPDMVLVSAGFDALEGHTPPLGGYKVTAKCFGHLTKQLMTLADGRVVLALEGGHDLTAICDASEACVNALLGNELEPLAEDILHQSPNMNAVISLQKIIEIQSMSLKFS
T2 sequence (Q13547 whole entry): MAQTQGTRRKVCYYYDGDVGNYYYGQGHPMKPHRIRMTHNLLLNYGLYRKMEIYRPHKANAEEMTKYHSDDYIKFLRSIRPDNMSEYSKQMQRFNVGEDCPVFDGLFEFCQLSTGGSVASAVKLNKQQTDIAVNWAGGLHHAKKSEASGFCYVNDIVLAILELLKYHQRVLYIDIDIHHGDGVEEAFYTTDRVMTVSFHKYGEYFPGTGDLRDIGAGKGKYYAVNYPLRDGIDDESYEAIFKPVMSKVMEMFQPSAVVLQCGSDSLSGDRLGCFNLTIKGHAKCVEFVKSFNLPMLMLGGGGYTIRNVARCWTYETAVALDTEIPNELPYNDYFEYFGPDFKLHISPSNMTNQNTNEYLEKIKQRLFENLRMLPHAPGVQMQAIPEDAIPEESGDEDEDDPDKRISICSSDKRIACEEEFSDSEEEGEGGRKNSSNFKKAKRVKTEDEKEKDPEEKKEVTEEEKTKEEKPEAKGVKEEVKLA

`CC(=O)N1CC(N2Cc3ncc(-c4noc(C(F)(F)F)n4)cc3C2=O)C1` [Example 75, 6-(1-acetylazetidin-3-yl)-3-(5-(trifluoromethyl)-1,2,4-oxadiazol-3-yl)-6,7-dihydro-5H-pyrrolo[3,4-b]pyridin-5-one]: the figures for the inhibition at 1 µM at HDAC9 enzyme, on HDAC1 enzyme and on HDAC6 enzyme were 79%, 11% and 87%, respectively.
In the case of `O=C(c1ccccc1)N1CC(N2Cc3ncc(-c4noc(C(F)(F)F)n4)cc3C2=O)C1` [Example 76, 6-(1-benzoylazetidin-3-yl)-3-(5-(trifluoromethyl)-1,2,4-oxadiazol-3-yl)-6,7-dihydro-5H-pyrrolo[3,4-b]pyridin-5-one], the inhibition at 1 µM at HDAC9 enzyme was 89%; on HDAC1 enzyme, 31%; on HDAC6 enzyme, 85%.
In the case of `O=C(Cc1ccc(F)cc1)N1CC(N2Cc3ncc(-c4noc(C(F)(F)F)n4)cc3C2=O)C1` [Example 77, 6-(1-((4-fluorophenyl)acetyl)azetidin-3-yl)-3-(5-(trifluoromethyl)-1,2,4-oxadiazol-3-yl)-6,7-dihydro-5H-pyrrolo[3,4-b]pyridin-5-one], the inhibition at 1 µM was 90% on HDAC9 enzyme, 30% on HDAC1 enzyme and 92% on HDAC6 enzyme.
The like results for `CC(C)(C)OC(=O)N[C@@H]1COCC[C@H]1N1Cc2ccc(-c3noc(C(F)(F)F)n3)cc2C1=O` [Example 81, tert-butyl ((3S,4R)-4-(1-oxo-6-(5-(trifluoromethyl)-1,2,4-oxadiazol-3-yl)-1,3-dihydro-2H-isoindol-2-yl)tetrahydro-2H-pyran-3-yl)carbamate] were, in that order, 62%, 16% and 100%.
`O=C(N[C@@H]1COCC[C@H]1N1Cc2ccc(-c3noc(C(F)(F)F)n3)cc2C1=O)C1CC1` [Example 82, N-((3S,4R)-4-(1-oxo-6-(5-(trifluoromethyl)-1,2,4-oxadiazol-3-yl)-1,3-dihydro-2H-isoindol-2-yl)tetrahydro-2H-pyran-3-yl)cyclopropanecarboxamide]: the inhibition at 1 µM at HDAC9 enzyme is 61%; on HDAC1 enzyme, 10%; at HDAC6 enzyme, 99%.
As for `CC1(C(=O)N[C@@H]2COCC[C@H]2N2Cc3ccc(-c4noc(C(F)(F)F)n4)cc3C2=O)COC1` [Example 83, 3-methyl-N-((3S,4R)-4-(1-oxo-6-(5-(trifluoromethyl)-1,2,4-oxadiazol-3-yl)-1,3-dihydro-2H-isoindol-2-yl)tetrahydro-2H-pyran-3-yl)oxetane-3-carboxamide], the results for the inhibition at 1 µM on HDAC9 enzyme, at HDAC1 enzyme and at HDAC6 enzyme were 52%, 5% and 101%, respectively.
`O=C(N[C@@H]1CCCC[C@H]1N1Cc2ncc(-c3noc(C(F)(F)F)n3)cc2C1=O)C1CC1` [Example 84, N-((1R,2R)-2-(5-oxo-3-(5-(trifluoromethyl)-1,2,4-oxadiazol-3-yl)-5,7-dihydro-6H-pyrrolo[3,4-b]pyridin-6-yl)cyclohexyl) cyclopropanecarboxamide]: the inhibition at 1 µM at HDAC9 enzyme was found to be 85%; on HDAC1 enzyme, 18%; on HDAC6 enzyme it was 102%.
The like results for `CC(C)(C)OC(=O)N[C@H]1CCCC[C@H]1N1Cc2ccc(-c3noc(C(F)(F)F)n3)cc2C1=O` [Example 85, tert-butyl ((1S,2R)-2-(1-oxo-6-(5-(trifluoromethyl)-1,2,4-oxadiazol-3-yl)-1,3-dihydro-2H-isoindol-2-yl)cyclohexyl)carbamate] were, in that order, 67%, 41% and 98%.
The matching figures for `O=C(N[C@H]1CCCC[C@H]1N1Cc2ccc(-c3noc(C(F)(F)F)n3)cc2C1=O)C1CC1` [Example 86, N-((1S,2R)-2-(1-oxo-6-(5-(trifluoromethyl)-1,2,4-oxadiazol-3-yl)-1,3-dihydro-2H-isoindol-2-yl)cyclohexyl) cyclopropanecarboxamide]: 92%, 80% and 98%.
For `CC1(C(=O)N[C@@H]2CCC(F)(F)C[C@H]2N2Cc3ccc(-c4noc(C(F)(F)F)n4)cc3C2=O)COC1` [Example 87, N-((1R,2R)-4,4-difluoro-2-(1-oxo-6-(5-(trifluoromethyl)-1,2,4-oxadiazol-3-yl)-1,3-dihydro-2H-isoindol-2-yl)cyclohexyl)-3-methyloxetane-3-carboxamide], the inhibition at 1 µM was determined as 45% on HDAC9 enzyme, 1% at HDAC1 enzyme and 99% on HDAC6 enzyme.
With `CC(C)(C)OC(=O)N1CC[C@@H](N2Cc3ncc(-c4noc(C(F)(F)F)n4)cc3C2=O)[C@H](c2ccccc2)C1` [Example 88, tert-butyl (3R,4R)-4-(5-oxo-3-(5-(trifluoromethyl)-1,2,4-oxadiazol-3-yl)-5,7-dihydro-6H-pyrrolo[3,4-b]pyridin-6-yl)-3-phenylpiperidine-1-carboxylate], the inhibition at 1 µM on HDAC9 enzyme came to 97%; at HDAC1 enzyme, 79%; on HDAC6 enzyme it was 98%.
In the case of `O=C1c2cc(-c3noc(C(F)(F)F)n3)ccc2CN1[C@@H]1CCCC[C@H]1NS(=O)(=O)C1CC1` [Example 89, N-((1R,2R)-2-(1-oxo-6-(5-(trifluoromethyl)-1,2,4-oxadiazol-3-yl)-1,3-dihydro-2H-isoindol-2-yl)cyclohexyl) cyclopropanesulfonamide], the inhibition at 1 µM at HDAC9 enzyme was 85%; on HDAC1 enzyme, 37%; at HDAC6 enzyme, 98%.
The matching figures for `O=C(CC1(O)CCCC1)N[C@@H]1CCCC[C@H]1N1Cc2ccc(-c3noc(C(F)(F)F)n3)cc2C1=O` [Example 91, 2-(1-hydroxycyclopentyl)-N-((1R,2R)-2-(1-oxo-6-(5-(trifluoromethyl)-1,2,4-oxadiazol-3-yl)-1,3-dihydro-2H-isoindol-2-yl)cyclohexyl)acetamide]: 44%, 11% and 99%.
The matching figures for `O=C1CC[C@H](C(=O)N[C@@H]2CCCC[C@H]2N2Cc3ccc(-c4noc(C(F)(F)F)n4)cc3C2=O)N1` [Example 92, 5-oxo-N-((1R,2R)-2-(1-oxo-6-(5-(trifluoromethyl)-1,2,4-oxadiazol-3-yl)-1,3-dihydro-2H-isoindol-2-yl)cyclohexyl)-D-prolinamide]: 23%, 0% and 96%.
Consider `O=C1C[C@@H](C(=O)N[C@@H]2CCCC[C@H]2N2Cc3ccc(-c4noc(C(F)(F)F)n4)cc3C2=O)N1` [Example 93, (2S)-4-oxo-N-((1R,2R)-2-(1-oxo-6-(5-(trifluoromethyl)-1,2,4-oxadiazol-3-yl)-1,3-dihydro-2H-isoindol-2-yl)cyclohexyl)azetidine-2-carboxamide], for which the inhibition at 1 µM on HDAC9 enzyme amounted to 42%; on HDAC1 enzyme, 2%; at HDAC6 enzyme it was 95%.
As for `CN1CCC[C@@H]1C(=O)N[C@@H]1CCCC[C@H]1N1Cc2ccc(-c3noc(C(F)(F)F)n3)cc2C1=O` [Example 94, 1-methyl-N-((1R,2R)-2-(1-oxo-6-(5-(trifluoromethyl)-1,2,4-oxadiazol-3-yl)-1,3-dihydro-2H-isoindol-2-yl)cyclohexyl)-D-prolinamide], the inhibition at 1 µM came out at 24% at HDAC9 enzyme, 5% on HDAC1 enzyme and 99% at HDAC6 enzyme.
